Consider six molecules from patent US12522562B2, “Intestine-specific partial agonists of farnesoid X receptor and uses thereof” (EWHA DrugDesignHouse Co., Ltd., priority 2022, dated 2026).

Data set [1] deals with T1, FXR (Homo sapiens, UniProt Q96RI1).
T1 sequence (Q96RI1 1-486): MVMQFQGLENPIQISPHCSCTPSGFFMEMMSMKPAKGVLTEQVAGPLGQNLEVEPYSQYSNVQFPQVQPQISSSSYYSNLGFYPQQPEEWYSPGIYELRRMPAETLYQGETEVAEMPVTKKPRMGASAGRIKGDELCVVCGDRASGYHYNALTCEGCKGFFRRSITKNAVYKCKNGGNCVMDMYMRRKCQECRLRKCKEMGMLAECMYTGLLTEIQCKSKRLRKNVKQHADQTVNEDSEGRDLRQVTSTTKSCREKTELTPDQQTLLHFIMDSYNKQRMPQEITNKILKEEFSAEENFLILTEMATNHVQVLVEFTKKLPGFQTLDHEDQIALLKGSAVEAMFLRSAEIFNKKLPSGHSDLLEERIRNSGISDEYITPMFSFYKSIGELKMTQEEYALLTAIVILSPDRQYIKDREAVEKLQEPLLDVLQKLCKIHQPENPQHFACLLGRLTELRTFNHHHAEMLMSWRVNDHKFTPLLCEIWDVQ
Briefly: PathHunter NHR protein interaction assay, antagonist mode (GW4064 challenge at EC80). The class given is cell-based. The note with it: pre-incubation, then GW4064 at EC80.

The nature of data set [2]: Pharmacokinetic studies of Example 11 in rats. The class given is in vivo, Sprague-Dawley rats. How it is done:
To investigate whether Example 11 is indeed an intestine-selective/specific FXR agonist, its pharmacokinetic profile was evaluated. Male Sprague-Dawley rats (7-week old, 240-260 g) were purchased from Orient Bio. Inc. (Seongnam, Korea). Rats were kept in the cage maintained under a controlled environment (temperature of 23±3° C., relative humidity of 50±5%, and 12 h dark-light cycle) for at least 3 days. Rats were fasted overnight before dose administration. The Example 11 was dissolved in a mixture of DMSO, Tween 80, and 0.9% saline solution (v:v:v, 1:1:8) at a concentration of 2.5 mg/mL for intravenous injection (IV). Also, Example 11 was dissolved in corn oil for oral administration (PO). Rats were divided into two groups; IV group and PO group including at least 6 animals per group. After anesthetized with isoflurane, rats were given the dose of 5 mg/kg via IV injection or 80 mg/kg via PO administration by oral gavage into the stomach. Blood samples (approximately 0.25 mL) were obtained by subclavian vein puncture at 0, 0.033, 0.083, 0.167, 0.333, 0.667, 1, 2, 3, 5, 7, 10, and 24 h after IV injection. After PO administration, blood samples were obtained at 0, 0.083, 0.167, 0.333, 0.667, 1, 2, 3, 5, 7, 10, and 24 h post-dose. Subsequently, blood samples were collected in 1.5-mL Eppendorf tube on an ice. The tubes were centrifuged at 13500 rpm for 15 min at 4° C. to separate the plasma fraction. Then, the plasma samples were stored at […] until HPLC analysis. To prepare the samples for HPLC analysis, 5 μL of Example 11 or Example 24 and 5 μL of internal standard, Example 4 were added to 45 μL of plasma. For extraction, 45 μL of MeCN was added to the mixture. Then, the mixture was vortexed for 2 min and centrifuged at 13500 rpm for 15 min at room temperature. The 60 μL of clear supernatant was transferred to an insert. Then, the HPLC auto-injector was programmed to inject 40 μL of the sample to the HPLC system for analysis. The linearity of the calibration curve was obtained by plotting the peak area ratio (area of Example 11 or area of Example 24/area of Example 4). Pharmacokinetic parameters were calculated by non-compartmental analysis of the plasma concentration-time profiles using Winnonlin® Professional version 8.01 software (Pharsight Corporation, Mountain View, CA). Oral bioavailability (F) was calculated by the ratio of the dose-corrected area under the plasma drug concentration-time curve (AUClast) between oral administration and intravenous injection.

The target in data set [3] is T1, FXR. Briefly: PathHunter NHR protein interaction assay, agonist mode (FXR).
Procedure: PathHunter® CHO-K1 FXR protein interaction cells were expanded from freezer stocks according to standard procedures. Cells were seeded in a total volume of 20 μL into white walled, 384-well microplates and incubated at 37° C. for the appropriate time prior to testing. Assay media contained charcoal-dextran filtered serum to reduce the level of hormones present. For agonist determination, cells were incubated with sample to induce response. […] For antagonist determination, cells were pre-incubated with antagonist followed by agonist challenge at the EC80 concentration. […] Microplates were read following signal generation with a PerkinElmer Envision™ instrument for chemiluminescent signal detection. Compound activity was analyzed using CBIS data analysis suite (ChemInnovation, CA). For agonist mode assays, percentage activity was calculated using the following formula: % Activity=100%×(mean RLU of test sample−mean RLU of vehicle control)/(mean MAX control ligand−mean RLU of vehicle control).
In this assay, two weakly complementing fragments of the β-galactosidase are expressed within stably transfected cells. The complementing fragments of the β-galactosidase are translationally fused to the C-terminus of a full-length FXR and to the steroid receptor coactivator peptide (SRCP), respectively. When bound by ligand, the FXR will migrate to the nucleus and recruit the SRCP domain, whereby complementation occurs, generating a unit of active β-galactosidase and production of chemiluminescent signal. Thus, measurement of chemiluminescent signal directly reflects FXR-coactivator interaction.
The conditions of data set [4]: Fang et al., Nat. Med. 2015; cited from earlier work.
In another data set the test system is patients with NASH. The note with it: cited from earlier work.
For data set [5], the target named is T1, FXR. The note with it: Chianelli et al., J. Med. Chem. 2020; cited from earlier work.
For the next data set, the target named is T2, Erα (Homo sapiens, UniProt P03372).
T2 sequence (P03372 1-595): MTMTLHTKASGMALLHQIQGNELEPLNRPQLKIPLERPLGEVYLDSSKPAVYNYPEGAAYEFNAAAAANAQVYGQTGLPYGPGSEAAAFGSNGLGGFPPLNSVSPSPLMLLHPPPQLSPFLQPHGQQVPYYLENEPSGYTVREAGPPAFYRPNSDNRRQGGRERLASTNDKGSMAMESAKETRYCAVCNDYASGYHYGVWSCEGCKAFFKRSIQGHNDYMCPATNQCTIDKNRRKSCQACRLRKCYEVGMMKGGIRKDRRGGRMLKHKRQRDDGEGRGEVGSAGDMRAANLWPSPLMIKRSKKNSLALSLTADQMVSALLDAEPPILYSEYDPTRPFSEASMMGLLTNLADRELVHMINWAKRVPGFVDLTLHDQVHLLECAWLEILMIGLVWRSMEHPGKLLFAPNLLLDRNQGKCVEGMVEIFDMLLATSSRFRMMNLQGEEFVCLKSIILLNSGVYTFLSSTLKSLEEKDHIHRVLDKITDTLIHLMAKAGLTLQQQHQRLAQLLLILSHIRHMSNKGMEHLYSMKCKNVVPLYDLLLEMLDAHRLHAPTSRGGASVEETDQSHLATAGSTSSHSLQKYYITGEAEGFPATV
In words: Nuclear receptor selectivity panel (PathHunter NHR protein interaction assay). Conditions: relative to 17β-estradiol.

Another data set concerns the target T3, LXRβ (Homo sapiens, UniProt P55055).
T3 sequence (P55055 1-460): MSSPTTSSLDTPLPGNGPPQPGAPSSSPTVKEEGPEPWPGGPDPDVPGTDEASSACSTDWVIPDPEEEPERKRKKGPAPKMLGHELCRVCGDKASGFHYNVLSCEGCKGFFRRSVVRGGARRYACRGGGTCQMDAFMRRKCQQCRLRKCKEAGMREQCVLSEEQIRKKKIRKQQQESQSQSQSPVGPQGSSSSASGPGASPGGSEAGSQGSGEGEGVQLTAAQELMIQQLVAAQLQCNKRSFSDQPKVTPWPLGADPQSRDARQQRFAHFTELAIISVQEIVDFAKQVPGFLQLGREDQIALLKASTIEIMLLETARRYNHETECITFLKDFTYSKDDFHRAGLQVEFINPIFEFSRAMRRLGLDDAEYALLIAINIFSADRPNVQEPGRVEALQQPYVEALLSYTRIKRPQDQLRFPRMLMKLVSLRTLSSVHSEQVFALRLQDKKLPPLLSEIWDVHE
Described as above. The note with it: read-out: % max. rel. efficacy at 100 uM, 100 μM; relative to TO901317.

For a further data set, the target named is T4, PPARγ (Homo sapiens, UniProt P37231).
T4 sequence (P37231 1-505): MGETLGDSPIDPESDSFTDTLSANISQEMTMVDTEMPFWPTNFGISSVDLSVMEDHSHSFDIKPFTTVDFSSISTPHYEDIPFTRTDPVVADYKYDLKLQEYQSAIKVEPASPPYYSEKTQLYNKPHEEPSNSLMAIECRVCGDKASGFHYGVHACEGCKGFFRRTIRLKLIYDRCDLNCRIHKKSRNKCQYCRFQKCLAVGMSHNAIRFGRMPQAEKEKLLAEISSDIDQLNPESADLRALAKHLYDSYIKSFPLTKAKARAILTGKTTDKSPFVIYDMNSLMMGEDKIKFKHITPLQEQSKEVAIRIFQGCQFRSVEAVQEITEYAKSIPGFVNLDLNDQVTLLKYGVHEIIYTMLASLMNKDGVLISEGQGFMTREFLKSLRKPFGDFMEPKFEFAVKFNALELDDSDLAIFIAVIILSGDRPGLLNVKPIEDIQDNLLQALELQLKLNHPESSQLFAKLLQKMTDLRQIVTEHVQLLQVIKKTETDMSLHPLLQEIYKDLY
The data set is described as above. Conditions: read-out: % max. rel. efficacy at 100 uM, 100 μM; relative to troglitazone.

Data set [6] has as its system patients with non-cirrhotic NASH. Conditions: 100 mg, Phase II; cited from earlier work.
For a further data set, the target named is T5, PPARδ (Homo sapiens, UniProt Q03181).
T5 sequence (Q03181 1-441): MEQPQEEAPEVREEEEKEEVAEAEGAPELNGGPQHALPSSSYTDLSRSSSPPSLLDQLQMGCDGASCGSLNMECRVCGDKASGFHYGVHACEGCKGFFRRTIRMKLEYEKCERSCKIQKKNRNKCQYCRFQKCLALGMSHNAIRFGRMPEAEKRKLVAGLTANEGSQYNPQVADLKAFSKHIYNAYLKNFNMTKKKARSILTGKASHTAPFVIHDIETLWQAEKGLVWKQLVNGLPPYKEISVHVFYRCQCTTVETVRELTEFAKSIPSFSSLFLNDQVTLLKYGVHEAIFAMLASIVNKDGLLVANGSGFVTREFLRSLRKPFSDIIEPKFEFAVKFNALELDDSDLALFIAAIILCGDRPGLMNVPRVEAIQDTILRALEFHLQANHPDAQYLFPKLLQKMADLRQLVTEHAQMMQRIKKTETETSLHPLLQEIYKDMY
Briefly: Nuclear receptor selectivity panel (PathHunter NHR protein interaction assay). Conditions: read-out: ref. compd (EC50); reference compound for PPARδ.

Where [7] appears, read: rat plasma, intravenous dose of Example 11, 5 mg/kg, Example 24 measured as metabolite.
[8] abbreviates: rat, intravenous dose of Example 11, 5 mg/kg, Example 24 measured as metabolite.
Setting [9] is: Table 2, 5 concentrations, 3-fold dilution from 3.3 μM (GW4064: 10 conc. from 10 μM), one experiment in duplicate, NA = inactive at 3.3 μM.
Where [10] appears, read: Table 5, relative to GW4064, mean ± SEM of two or three independent experiments in duplicate.
The mark [11] stands for this setting: read-out: % max. rel. efficacy, Table 2, relative to GW4064, top conc. 3.3 μM, one experiment in duplicate.
Setting [12] is: read-out: % max. rel. efficacy, Table 4, relative to GW4064, top conc. 3.3 μM, one experiment in duplicate.
Setting [13] is: read-out: % max. rel. efficacy, Table 5, relative to GW4064, mean ± SEM of two or three independent experiments in duplicate.

Where two headings read alike, the source gives them in different places. Marks after values point to notes of the source that are not given here. A value given as a limit tells only on which side of the number the result lay.

For orientation: Vss means a proportionality between amount in the body and measured concentration, not a real space. In the case of `CN(C)c1ccc(-c2ccc(CN(C(=O)C3CCCCC3)c3cc(F)cc(/C=C/C(=O)O)c3)cc2C#N)cc1` [Example 24], the “% antagonistic efficacy” value on FXR [1] (3.3 μM) was 7%. In addition, on FXR [1] (10 μM), the “% antagonistic efficacy” value was 26%. In data set [2] (setting [7]), the AUClast was 1200 ± 100 ng·h/mL and the t1/2 turned out to be 14.4 ± 3 min. The “detected in plasma until (time after administration)” value in data set [2] (rat, intravenous Example 11, 5 mg/kg, metabolite) is given as 1 h. In data set [2] (setting [8]), the CL is 70 ± 6.7 mL/min/kg and the Vss is on record as 1.4 ± 0.2 L/kg. Also, the “detected after (time after oral administration)” value in [2] (rat, oral Example 11, 80 mg/kg) is listed as 3 h. Further, the “% agonistic efficacy” value on FXR [3] (Table 7, 10 μM) is listed as 0%.

The EC50 is the concentration giving half of the maximal effect. Regarding `COC(=O)/C=C/c1cccc(N(Cc2ccc(-c3ccc(N(C)C)cc3)cc2)C(=O)C2CCCCC2)c1` [Fexaramine, reference compound], the oral bioavailability in data set [4] is on record as 12%. Also, the half-maximal effective concentration (EC50) stood at 1000 nM on FXR [3] and 800 nM at FXR [3] (setting [9]). Moreover, the “% max. rel. efficacy” value at FXR [3] (setting [10]) is reported as 29 ± 4^b %. The Emax is 21% at FXR [3] (setting [11]), 34% on FXR [3] (setting [12]) and 29 ± 4% at FXR [3] (setting [13]).

For `Cn1nc(C(=O)N(Cc2ccccc2)Cc2ccc(C(=O)O)cc2)c2c1-c1cc(Cl)ccc1OC2` [nidufexor], the “reduction of LFC (liver fat content)” value in the data set on patients with NASH (Phase II, NASH) is given as “about 30%”. Also, the rate of pruritus with patients with NASH (high-dose group) is reported as 54%; in the data set with patients with NASH (low-dose group), 30%. For the same molecule, the “maximum efficacy relative to GW4064” value at FXR [5] is 57%.

In the case of `COC(=O)/C=C/c1cccc(N(Cc2ccc(-c3ccc(N(C)C)cc3)c(C#N)c2)C(=O)C2CCCCC2)c1` [Example 4, (E)-3-(3-((2-cyano-4′-dimethylaminobiphenyl-4-ylmethyl)cyclohexanecarbonylamino)phenyl)acrylic Acid Methyl Ester], at Erα, the “% max. rel. efficacy at 100 uM” value was 1%. Besides, the Emax at 100 µM was < 3% at LXRβ; < 3% at PPARγ; 47% at FXR [3] (read-out: % max. rel. efficacy at 100 uM, Table 3, 100 μM, relative to GW4064). In addition, the EC50 at FXR [3] worked out at 1000 nM; at FXR [3] (setting [9]) it was 800 nM; at FXR [3] (Table 5, mean ± SEM of two or three independent experiments in duplicate), 800 ± 100 nM. The “% max. rel. efficacy” value on FXR [3] (setting [10]) is 40 ± 8^b %. The Emax at FXR [3] (setting [11]) was determined as 24%; on FXR [3] (setting [12]), 47%; on FXR [3] (setting [13]) it was 40 ± 8%.

As for `O=C(O)c1ccnc(N2CC(O)(c3ccc(OCc4c(-c5c(Cl)cccc5Cl)noc4C4CC4)cc3Cl)C2)c1` [cilofexor], in data set [6], the “median relative decrease in hepatic steatosis” value is reported as −22.7% and the “moderate to severe pruritus (patients)” value is 14%.

`CCCc1c(OCCCOc2ccc(OCC(=O)O)cc2)ccc(C(C)=O)c1O` [L-165,041]: on PPARδ, the EC50 worked out at 6 nM.
